The source of these data is US3940441A (priority 1974, dated 1976).

Test [1] deals with Streptococcus sp. Description: microbe, parasite or virus in culture. Format: cell-based. As to conditions: for MBC / MIC: Streptococcus; for MBC: read-out: Minimum Effective Concentration, Bactericidal; for MIC: read-out: Minimum Effective Concentration, Bacteriostatic.
The subject of test [2] is Eberthella typhi. In words: microbe, parasite or virus in culture. Format: cell-based. As to conditions: for MBC: read-out: Minimum Effective Concentration, Bactericidal; for MIC: read-out: Minimum Effective Concentration, Bacteriostatic.
For test [3], the system named is Staphylococcus aureus. Description: microbe, parasite or virus in culture. The class given is cell-based. As to conditions: for MBC / MIC: Staphylococcus aureus; for MBC: read-out: Minimum Effective Concentration, Bactericidal.
Test [4] deals with Clostridium welchii. In words: microbe, parasite or virus in culture. The class given is cell-based.
Test [5] relates to Proteus vulgaris. In words: microbe, parasite or virus in culture. Format: cell-based. The conditions noted are these: read-out: Minimum Inhibitory Concentration.
Test [6] deals with Escherichia coli. Description: microbe, parasite or virus in culture. Format: cell-based. The conditions noted are these: read-out: Minimum Inhibitory Concentration.
The test system of test [7] is Pseudomonas aeruginosa. In words: microbe, parasite or virus in culture. The class given is cell-based. As to conditions: for MIC / MBC: Pseudomonas aeruginosa; for MBC: read-out: Minimum Effective Concentration, Bactericidal.
Test [8] has as its system Endamoeba criceti. In words: chemotherapeutic evaluation in vivo in hamsters infected with Endamoeba criceti (amebacidal activity). As to conditions: oral. The arrangement: species or system hamster.
Where [9] appears, read: read-out: Minimum Effective Concentration, Bacteriostatic.
The mark [10] stands for this setting: Clostridium, read-out: Minimum Effective Concentration, Bactericidal.
[11] abbreviates: Clostridium, read-out: Minimum Effective Concentration, Bacteriostatic.
[12] abbreviates: read-out: Minimum Inhibitory Concentration.

≈ marks a conversion by molar mass, not a printed value. Read-outs that look alike come from different tables or passages of the source.

Consider `CN(CCCCCCN(C)Cc1ccc(Oc2ccc([N+](=O)[O-])cc2)cc1)Cc1ccc(Oc2ccc([N+](=O)[O-])cc2)cc1` [Example 11A, N,N'-Dimethyl-N,N'-bis[4-(4'-nitrophenoxy)-benzyl]-1,6-hexanediamine], for which the MBC was 5 µg/mL (≈ 8.35 µM) in test [1], 750 µg/mL (≈ 1250 µM) in test [2], 250 µg/mL (≈ 418 µM) in test [3] and 500 µg/mL (≈ 835 µM) in test [4] (setting [10]). The MIC is 5 µg/mL (≈ 8.35 µM) in test [1], 500 µg/mL (≈ 835 µM) in test [2], 5 µg/mL (≈ 8.35 µM) in test [3] (setting [9]) and 250 µg/mL (≈ 418 µM) in test [4] (setting [11]).

`O=[N+]([O-])c1ccc(Oc2ccc(CNCCCNCCCNCc3ccc(Oc4ccc([N+](=O)[O-])cc4)cc3)cc2)cc1` [Example 9B, Bis{3-[4-(4'-nitrophenoxy)benzylamino]propyl}amine]: the MIC in test [5] was 125 µg/mL (≈ 213 µM); in test [3] (setting [12]), 0.05 µg/mL (≈ 0.0854 µM); in test [6], 0.2 µg/mL (≈ 0.341 µM); in test [7] (setting [12]), 3.1 µg/mL (≈ 5.29 µM).

Turning to `O=[N+]([O-])c1ccc(Oc2ccc(CNCCCCCCNCc3ccc(Oc4ccc([N+](=O)[O-])cc4)cc3)cc2)cc1` [Example 7, N,N'-bis[4-(4'-nitrophenoxy)benzyl]-1,6-hexanediamine], the MBC in test [2] was found to be 50 µg/mL (≈ 87.6 µM); in test [3] it was 7.5 µg/mL (≈ 13.1 µM); in test [4] (setting [10]), 25 µg/mL (≈ 43.8 µM); in test [7], 500 µg/mL (≈ 876 µM). The MIC in test [2] came out at 7.5 µg/mL (≈ 13.1 µM); in test [3] (setting [9]) it was 1 µg/mL (≈ 1.75 µM); in test [4] (setting [11]), 25 µg/mL (≈ 43.8 µM); in test [7] (setting [9]), 250 µg/mL (≈ 438 µM).

Take `O=C(Nc1ccccc1)N(CCCCCCN(Cc1ccc(Oc2ccc([N+](=O)[O-])cc2)cc1)C(=O)Nc1ccccc1)Cc1ccc(Oc2ccc([N+](=O)[O-])cc2)cc1` [Example 12A, N,N'-bis[4-(4'-nitrophenoxy)benzyl]-N,N'-bis(phenylcarbamyl)-1,6-hexanediamine]: the MBC is greater than 100 µg/mL in test [2], 75 µg/mL (≈ 92.7 µM) in test [3], 100 µg/mL (≈ 124 µM) in test [4] (setting [10]) and greater than 100 µg/mL in test [7]. Besides, the MIC in test [2], in test [3] (setting [9]), in test [4] (setting [11]) and in test [7] (setting [9]) was 75 µg/mL (≈ 92.7 µM) in each case.

Consider `O=[N+]([O-])c1ccc(Oc2ccc(CNC[C@H]3CC[C@H](CNCc4ccc(Oc5ccc([N+](=O)[O-])cc5)cc4)CC3)cc2)cc1` [Example 10A, Trans-1,4-bis[4-(4'-nitrophenoxy)benzylaminomethyl]cyclohexane], for which the MBC in test [1] is 25 µg/mL (≈ 41.9 µM); in test [2], 75 µg/mL (≈ 126 µM); in test [3], 50 µg/mL (≈ 83.8 µM); in test [4] (setting [10]), 100 µg/mL (≈ 168 µM). Further, the MIC was determined as 25 µg/mL (≈ 41.9 µM) in test [1], 50 µg/mL (≈ 83.8 µM) in test [2], 10 µg/mL (≈ 16.8 µM) in test [3] (setting [9]) and 100 µg/mL (≈ 168 µM) in test [4] (setting [11]).

As to `O=[N+]([O-])c1ccc(Oc2ccc(CNCCNCc3ccc(Oc4ccc([N+](=O)[O-])cc4)cc3)cc2)cc1` [Example 8, N,N'-bis[4-(4'-nitrophenoxy)benzyl]-1,2-ethanediamine], the MBC in test [2] was greater than 100 µg/mL; in test [3], 50 µg/mL (≈ 97.2 µM); in test [4] (setting [10]), 1 µg/mL (≈ 1.94 µM); in test [7], greater than 100 µg/mL. The MIC amounted to 75 µg/mL (≈ 146 µM) in test [2], 10 µg/mL (≈ 19.4 µM) in test [3] (setting [9]), 0.5 µg/mL (≈ 0.972 µM) in test [4] (setting [11]) and 75 µg/mL (≈ 146 µM) in test [7] (setting [9]).

On to `O=[N+]([O-])c1ccc(Oc2ccc(C=NCCCCCCCCN=Cc3ccc(Oc4ccc([N+](=O)[O-])cc4)cc3)cc2)cc1` [Example 2, N,N'-bis[4-(4'-nitrophenoxy)benzal]-1,8-octanediamine], for which the “animals cleared of amebic infection” value in test [8] (12.5 mg./kg./day) was 1 out of 5; in test [8] (25 mg./kg./day) it was 2 out of 5; in test [8] (50 mg./kg./day) it was 2 out of 5.

Regarding `O=[N+]([O-])c1ccc(Oc2ccc(C=NCCN=Cc3ccc(Oc4ccc([N+](=O)[O-])cc4)cc3)cc2)cc1` [Example 3, N,N'-bis[4-(4'-nitrophenoxy)benzal]-1,2-ethanediamine], in test [8] (100 mg./kg./day), the “animals cleared of amebic infection” value is given as 2 out of 5.

As for `O=C(C(Cl)Cl)N(CCN(Cc1ccc(Oc2ccc([N+](=O)[O-])cc2)cc1)C(=O)C(Cl)Cl)Cc1ccc(Oc2ccc([N+](=O)[O-])cc2)cc1` [Example 13A, N,N'-bis(dichloroacetyl)-N,N'-bis[4-(4'-nitrophenoxy)benzyl]-1,2-ethanediamine], the MBC in test [2] is 750 µg/mL (≈ 1020 µM); in test [3] it was greater than 1000 µg/mL; in test [4] (setting [10]) it was greater than 1000 µg/mL; in test [7] it was 750 µg/mL (≈ 1020 µM). Besides, the MIC in test [2], in test [3] (setting [9]), in test [4] (setting [11]) and in test [7] (setting [9]) was 750 µg/mL (≈ 1020 µM) each time.

Regarding `Nc1ccc(Oc2ccc(CNCCCCCCCCNCc3ccc(Oc4ccc(N)cc4)cc3)cc2)cc1` [Example 14A, N,N'-bis[4-(4'-aminophenoxy)benzyl]-1,8-octanediamine], the MBC in test [1] came to 50 µg/mL (≈ 92.8 µM); in test [2], 75 µg/mL (≈ 139 µM); in test [3] it was 25 µg/mL (≈ 46.4 µM); in test [4] (Clostridium; read-out: Minimum Effective Concentration, Bactericidal) it was 100 µg/mL (≈ 186 µM); in test [7], 1000 µg/mL (≈ 1860 µM). Besides, the MIC in test [1] came out at 25 µg/mL (≈ 46.4 µM); in test [2] it was 50 µg/mL (≈ 92.8 µM); in test [3] (setting [9]) it was 7.5 µg/mL (≈ 13.9 µM); in test [4] (Clostridium; read-out: Minimum Effective Concentration, Bacteriostatic) it was 100 µg/mL (≈ 186 µM); in test [7] (setting [9]), 750 µg/mL (≈ 1390 µM).

As to `O=[N+]([O-])c1ccc(Oc2ccc(CNCCCCCCCCNCc3ccc(Oc4ccc([N+](=O)[O-])cc4)cc3)cc2)cc1` [Example 6A, N,N'-bis[4-(4'-nitrophenoxy)benzyl]-1,8-octanediamine], the MBC in test [2] stood at 25 µg/mL (≈ 41.8 µM); in test [3], 5 µg/mL (≈ 8.35 µM); in test [4] (setting [10]) it was 75 µg/mL (≈ 125 µM); in test [7] it was 1000 µg/mL (≈ 1670 µM). The MIC in test [2] is 7.5 µg/mL (≈ 12.5 µM); in test [3] (setting [9]), 0.5 µg/mL (≈ 0.835 µM); in test [4] (setting [11]), 50 µg/mL (≈ 83.5 µM); in test [7] (setting [9]), 750 µg/mL (≈ 1250 µM).

With `O=[N+]([O-])c1ccc(Oc2ccc(C=NCCCCCCN=Cc3ccc(Oc4ccc([N+](=O)[O-])cc4)cc3)cc2)cc1` [Example 1A, N,N'-bis[4-(4'-nitrophenoxy)benzal]-1,6-hexanediamine], the “animals cleared of amebic infection” value was 4 out of 10 in test [8] (25 mg./kg./day), 6 out of 10 in test [8] (50 mg./kg./day) and 3 out of 5 in test [8] (100 mg./kg./day).

For the compound `Cc1c(C)c(CCNCc2ccc(Oc3ccc([N+](=O)[O-])cc3)cc2)c(C)c(C)c1CCNCc1ccc(Oc2ccc([N+](=O)[O-])cc2)cc1` [Example 16A, Bis{2-[4-(4'-nitrophenoxy)benzylamino]ethyl}-2,3,5,6-tetramethylbenzene], the MBC in test [1] amounted to 25 µg/mL (≈ 37 µM); in test [2], 750 µg/mL (≈ 1110 µM); in test [3] it was 75 µg/mL (≈ 111 µM); in test [4] (setting [10]) it was 250 µg/mL (≈ 370 µM). Also, the MIC turned out to be 2.5 µg/mL (≈ 3.7 µM) in test [1], 100 µg/mL (≈ 148 µM) in test [2], 7.5 µg/mL (≈ 11.1 µM) in test [3] (setting [9]) and 100 µg/mL (≈ 148 µM) in test [4] (setting [11]).

Consider “2,2'-Dimethylbis{2-[4-(4'-nitrophenoxy)benzylamino]-ethyl}amine and 1,2'-Dimethylbis{2-[4-(4'-nitrophenoxy)benzylamino]ethyl}amine (Mixture of Isomers) [Example 9A]”, for which the “Minimum Effective Concentration, Bactericidal” value in test [1] is 0.01 mg./cc; in test [2], 0.25 mg./cc; in test [3], 0.025 mg./cc; in test [4], 0.005 mg./cc; in test [7], greater than 1.0 mg./cc. In addition, the “Minimum Effective Concentration, Bacteriostatic” value came out at 0.0075 mg./cc in test [1]; 0.1 mg./cc in test [2]; 0.005 mg./cc in test [3]; 0.001 mg./cc in test [4]; 0.5 mg./cc in test [7].
